Experimental findings from patent US20260166021A1, “POLYMORPHIC FORMS OF A SOLUBLE EPOXIDE HYDROLASE INHIBITOR AND FORMULATIONS THEREOF” (EicOsis, LLC, priority 2022, published 2026) are described below.

Series [1] in a line: Equilibrium-solubility screening in solvents and excipients. Type of series: physicochemical. The conditions noted are these: organic solvent or mixture, thermodynamic from solid; PEG300, PEG400, propylene glycol, vitamin E TPGS, Gelucire 44/14, castor oil hydrogenated, Capmul MCM NF, Capmul MCM EP, Kolliphor HS-15, Kolliphor EL, Labrasol, Transcutol HP; approx. 24 hours. Here is the method:
For these analyses, Form D or Form C was mixed with 0.5 or 1.0 mL of solvents and equilibrated for approximately 24 hours. The mixture was filtered through 0.45 μm centrifuge filters.
As expected, the compound was not easily ionized at physiologically relevant pH. […] In addition, these excipients included surfactants, co-solvents, and lipids which are amenable for use in self-emulsifying drug delivery systems (SEDDS). The XRD pattern of the starting material was maintained for each sample after equilibrium.

A short description of series [2]: Supersaturation monitoring in PEG 300. Type of series: physicochemical.

One may read the thermodynamic solubility as the concentration in solution at equilibrium with solid.

On to `CC[C@H](C)C(=O)N1CCC(NC(=O)Nc2ccc(OC(F)(F)F)c(F)c2)CC1` [Formula (I), (S)-1-(3-fluoro-4-(trifluoromethoxy)phenyl)-3-(1-(2-methylbutanoyl)piperidin-4-yl)urea], for which the thermodynamic solubility in series [1] was greater than 20 mg/mL. Further, the “time without visual precipitation in PEG300” value in series [2] (100 mg/mL in PEG300, room temperature) is given as 9 days. The “precipitation from PEG300” value in series [2] (200 mg/mL in PEG300) is listed as “readily precipitated overnight”.
